Results as given in US5716949A, “Heterocyclic compounds” (Novo Nordisk A/S, priority 1995, dated 1998).
Structures can show the parent of a compound that is named as a salt.

Test: Inhibition of formalin induced pain response in mice
Assay type: in vivo, mouse (NMRI female mice)
Settings: 0.1 mg/kg, 1% formalin into left hind paw
Description: Compounds of formula I may be used to treat all painful, hyperalgesic and/or inflammatory conditions in which C-fibers play a pathophysiological role by eliciting neurogenic pain or inflammation, i.e.: Formalin induced pain or paw oedema […] About 20 g NMRI female mice were injected […] 1% formalin into the left hind paw. The animals were then placed on a heated (31° C.) table, and the pain response was scored. After 1 h they were killed and bled. Left and right hind paws were removed and the weight difference between the paws was used as indication of the oedema response of the formalin injected paw. Values for inhibition of formalin induced pain response for some representative compounds are recorded in table 1.

Row | Compound | % Pain inhibition (inhibition of formalin induced pain response)
1 | Cl.O=C1Cc2ccccc2N(CCCN2CCC[C@@H](C(=O)O)C2)c2ccccc21 [Example 1, (R)-1-(3-(10-Oxo-10,11-dihydro-5H-dibenz[b,f]azepin-5-yl)-1-propyl)-3-piperidinecarboxylic acid hydrochloride] | 21%
2 | O=C(O)[C@@H]1CCCN(CCC=C2c3ccccc3CSc3ccccc32)C1 [Example 3, (R)-1-(3-(6,11-Dihydro-dibenz[b,e]thiepin-11-yl)-1-propylidene)-3-piperidinecarboxylic acid hydrochloride] | 31%
